Results reported in ChEMBL document CHEMBL1201862, “PubChem BioAssay data set” (2004).
Active and inactive are the calls of the source.

Key:
[1] = cytotoxicity in HEK-293T cells, dose response, cytotoxicity control for TCR NF-kB inhibitor project, luminescence, T-cell screen hits (AID 489026); type: functional, cell-based;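 also: cells exposed to compound about 14 hours before the viability readout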
[2] = molecular target: T1, Microphthalmia-associated transcription factor (Homo sapiens, UniProt O75030); assay: TRPM1 promoter luciferase signal decrease, dose response, MITF inhibitor project, cell-based, SK-MEL-5, cherry-picked, set 3 (AID 493073); type: functional
T1 sequence (O75030 whole entry): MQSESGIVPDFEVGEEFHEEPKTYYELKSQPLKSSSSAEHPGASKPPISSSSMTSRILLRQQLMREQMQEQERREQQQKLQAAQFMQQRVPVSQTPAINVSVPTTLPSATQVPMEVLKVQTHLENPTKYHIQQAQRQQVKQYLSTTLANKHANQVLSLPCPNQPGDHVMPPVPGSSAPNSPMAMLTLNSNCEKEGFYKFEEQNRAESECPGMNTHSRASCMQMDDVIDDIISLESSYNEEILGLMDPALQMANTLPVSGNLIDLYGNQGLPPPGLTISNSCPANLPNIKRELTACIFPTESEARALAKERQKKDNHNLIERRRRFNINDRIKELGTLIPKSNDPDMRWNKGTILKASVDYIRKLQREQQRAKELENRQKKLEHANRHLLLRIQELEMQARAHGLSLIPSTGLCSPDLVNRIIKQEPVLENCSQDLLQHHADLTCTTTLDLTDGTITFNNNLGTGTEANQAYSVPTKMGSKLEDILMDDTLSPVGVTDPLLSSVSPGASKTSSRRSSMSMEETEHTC

Vero = assay: West Nile virus antiviral activity, cell-based, CPE readout (AID 1621); type: functional; settings: Chlorocebus sabaeus
Estrogen receptor beta = Estrogen receptor beta (Homo sapiens, UniProt Q92731); assay: ERβ–SRC-3 coactivator interaction inhibitors, confirmation, orthogonal assay, biochemical, ELISA, streptavidin-HRP readout (AID 1060)
[3] = molecular target: Induced myeloid leukemia cell differentiation protein Mcl-1 (Homo sapiens, UniProt Q07820); type: functional
[4] = molecular target: T2, Voltage-gated N-type calcium channel alpha-1B subunit/Amyloid beta A4 precursor protein-binding family A member 1 (Homo sapiens, UniProt Q00975+Q02410); type: protein assay
[5] = molecular target: T2, Voltage-gated N-type calcium channel alpha-1B subunit/Amyloid beta A4 precursor protein-binding family A member 1; assay: disruptors of Mint-PDZ/N-type channel peptide interaction – biochemical, HTRF, set 2, SAR follow-up (AID 434980); type: functional
[6] = molecular target: T2, Voltage-gated N-type calcium channel alpha-1B subunit/Amyloid beta A4 precursor protein-binding family A member 1; type: protein assay; remark: listed apart in the source
[7] = molecular target: Protein-tyrosine kinase 2-beta (Homo sapiens, UniProt Q14289);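 also: potency of inhibitors of PYK2 kinase phosphorylation of poly-GT substrate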
Genome polyprotein = Genome polyprotein (Hepatitis C virus, UniProt Q2Q167); assay: HCV core protein dimerization inhibitors, dose response, biochemical, TR-FRET (AID 2159); design: species or system Hepacivirus hominis;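 also: blocks dimerization of HCV core protein measured by TR-FRET between tagged core106 pairs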
Albumin = Albumin (Bos taurus, UniProt P02769); assay: Counterscreen for inhibitors of T-cell receptor (TCR)-CD3 interaction: Fluorescence-based biochemical high throughput dose response assay to identify inhibitors of T-cell receptor (TCR)-CD3 interaction using a TAMRA-labeled BSA probe.; type: functional
[8] = molecular target: T3, Heat shock factor protein 1 (Mus musculus, UniProt P38532); assay: inhibition of MG132-induced HSE-luciferase signal, confirmation, cell-based, NIH3T3, luminescence, dose retest (AID 2382); type: functional;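 also: NIH3T3 fibroblasts with HSF1-driven luciferase reporter stressed by proteasome inhibitor MG132; luminescence from HSF1-driven luciferase expression after 8 hours of MG132 stress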
T3 sequence (P38532 whole entry): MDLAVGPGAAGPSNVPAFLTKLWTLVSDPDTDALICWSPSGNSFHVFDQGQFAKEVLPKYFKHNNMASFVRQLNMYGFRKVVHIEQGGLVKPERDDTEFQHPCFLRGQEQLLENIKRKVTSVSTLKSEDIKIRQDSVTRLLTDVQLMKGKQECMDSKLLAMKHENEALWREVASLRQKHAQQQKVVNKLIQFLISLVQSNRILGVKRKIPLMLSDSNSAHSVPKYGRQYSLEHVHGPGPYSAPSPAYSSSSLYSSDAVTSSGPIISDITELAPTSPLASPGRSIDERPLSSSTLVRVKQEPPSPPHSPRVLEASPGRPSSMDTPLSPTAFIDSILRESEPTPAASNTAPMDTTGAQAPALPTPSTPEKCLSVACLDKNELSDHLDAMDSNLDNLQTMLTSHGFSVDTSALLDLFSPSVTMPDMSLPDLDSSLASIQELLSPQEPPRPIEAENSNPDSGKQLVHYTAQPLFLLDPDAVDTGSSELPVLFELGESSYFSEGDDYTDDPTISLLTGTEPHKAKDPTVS

[9] = molecular target: T2, Voltage-gated N-type calcium channel alpha-1B subunit/Amyloid beta A4 precursor protein-binding family A member 1; assay: disruptors of Mint-PDZ/N-type channel peptide interaction – biochemical, HTRF, SAR follow-up (AID 2489); type: functional
Large T antigen = Large T antigen (Simian virus 40, UniProt P03070); type: functional, Betapolyomavirus macacae;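 also: Confirmatory-stage PubChem screen for compounds that inhibit SV40 T antigen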
[10] = cytotoxicity toward NIH3T3 fibroblasts, dose response, counter-screen, cell-based, ATP luminescence, mouse fibroblasts (AID 2010); type: functional;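 also: cells exposed to compound for about 90 hours before reading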
[11] = inhibitors of intracellular T. cruzi replication, confirmation, NIH3T3 host cells, beta-gal luminescence (AID 2044); type: functional, cell-based;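 also: intracellular parasites grown in NIH/3T3 mouse fibroblasts as host cells; luminescent beta-galactosidase reporter signal from transgenic T. cruzi replicating inside host cells; inhibitors lower the luminescence signal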
Prothrombin = Prothrombin (Homo sapiens, UniProt P00734); assay: Thrombin 1536 HTS Dose Response Confirmation. [Related pubchem assays: 1046 (Thrombin 1536 HTS; hits were confirmed in this assay)]; type: functional
[12] = molecular target: T4, Neuropeptide Y receptor type 1 (Homo sapiens, UniProt P25929); assay: Fluorescence-based dose response cell-based high-throughput screening assay for potentiators or agonists of NPY-Y1.; type: functional
T4 sequence (P25929 whole entry): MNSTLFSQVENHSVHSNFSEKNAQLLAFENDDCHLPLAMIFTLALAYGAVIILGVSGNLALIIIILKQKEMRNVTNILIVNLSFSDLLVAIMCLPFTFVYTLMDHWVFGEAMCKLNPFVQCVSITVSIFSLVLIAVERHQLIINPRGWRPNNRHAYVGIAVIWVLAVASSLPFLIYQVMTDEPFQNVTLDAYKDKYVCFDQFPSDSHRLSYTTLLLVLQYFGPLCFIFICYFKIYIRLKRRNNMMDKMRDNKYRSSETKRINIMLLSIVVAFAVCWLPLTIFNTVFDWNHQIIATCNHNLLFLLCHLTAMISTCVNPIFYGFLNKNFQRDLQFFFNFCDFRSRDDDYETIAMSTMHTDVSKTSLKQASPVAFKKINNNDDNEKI

[13] = molecular target: T5, Neuropeptide Y receptor type 2 (Homo sapiens, UniProt P49146); assay: Fluorescence-based counterscreen for agonists of NPY-Y1: cell-based high-throughput dose response assay for agonists of NPY-Y2.; type: functional
T5 sequence (P49146 whole entry): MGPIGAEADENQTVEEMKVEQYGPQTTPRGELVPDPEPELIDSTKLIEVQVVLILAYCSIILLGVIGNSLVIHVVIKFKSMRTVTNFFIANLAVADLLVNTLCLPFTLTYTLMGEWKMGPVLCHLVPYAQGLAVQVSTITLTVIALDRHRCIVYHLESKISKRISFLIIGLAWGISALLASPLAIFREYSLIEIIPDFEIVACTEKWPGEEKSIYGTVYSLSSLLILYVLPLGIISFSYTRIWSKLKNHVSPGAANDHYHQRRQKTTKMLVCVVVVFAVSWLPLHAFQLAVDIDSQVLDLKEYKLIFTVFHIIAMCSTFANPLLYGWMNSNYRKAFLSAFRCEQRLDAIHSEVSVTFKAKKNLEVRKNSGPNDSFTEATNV

[14] = ADAM10 protease inhibitors, dose response, selectivity assay for ADAM17 exosite inhibitor project, biochemical, FRET peptide substrate, recombinant human ADAM10 (AID 743259);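 also: ADAM10 enzyme cleaving a FRET peptide substrate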
[15] = molecular target: T6, Mannose-6-phosphate isomerase (Homo sapiens, UniProt P34949); assay: human PMI inhibitors, high substrate, primary screen, biochemical, fluorescence intensity, high mannose 6-phosphate (AID 1220)
T6 sequence (P34949 whole entry): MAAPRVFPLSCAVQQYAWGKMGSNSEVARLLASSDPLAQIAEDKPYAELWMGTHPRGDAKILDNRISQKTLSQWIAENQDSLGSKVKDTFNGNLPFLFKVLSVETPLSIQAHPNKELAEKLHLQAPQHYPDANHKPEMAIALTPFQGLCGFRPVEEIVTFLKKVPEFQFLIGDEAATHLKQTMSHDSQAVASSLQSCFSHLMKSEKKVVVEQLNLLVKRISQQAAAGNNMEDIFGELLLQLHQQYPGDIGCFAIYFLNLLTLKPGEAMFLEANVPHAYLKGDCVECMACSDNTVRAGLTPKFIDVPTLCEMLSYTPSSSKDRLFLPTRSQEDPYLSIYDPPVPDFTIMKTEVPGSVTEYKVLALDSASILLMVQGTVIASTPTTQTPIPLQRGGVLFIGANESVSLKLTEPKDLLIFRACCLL

[16] = molecular target: T5, Neuropeptide Y receptor type 2; assay: Fluorescence counterscreen for potentiators or agonists of NPY-Y1: Cell-based high-throughput dose response assay for potentiators or agonists of NPY-Y2.; type: functional
[17] = molecular target: Heat shock protein HSP 90-alpha (Homo sapiens, UniProt P07900); type: functional, organism-based
[18] = human group III sPLA2 inhibitors, dose response, biochemical, QFRET, IC50 (AID 743457);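 also: green fluorescence rise as the enzyme cleaves BODIPY PC-A2 in liposomes; potency for inhibition of the enzyme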
[19] = molecular target: T4, Neuropeptide Y receptor type 1; assay: Fluorescence-based dose response cell-based high-throughput screening assay for agonists of NPY-Y1. [Related pubchem assays: 1697 (Screening assay (NPY-Y1 agonists).), 1359 (Screening assay (NPY-Y2 potentiators or agonists).), 1304 (Screening assay (NPY-Y1 potentiators or agonists).), 1704 (Screening assay (CNGC inhibitors).), 1791 (Summary AID.)]; type: functional
HEK293 = assay: Fluorescence-based counterscreen for potentiators or agonists of NPY-Y1: cell-based high-throughput dose response assay for inhibitors of cyclic nucleotide gated ion channel (CNGC) activity. In this assay, the parental HEK293 cell line transfected with a cyclic-nucleotide gated ion channel (CNGC)-based cAMP sensor is used to measure inhibition of isoproterenol-induced CNGC …; type: functional; settings: Homo sapiens
[20] = molecular target: Disintegrin and metalloproteinase domain-containing protein 17 (Homo sapiens, UniProt P78536); assay: exosite inhibitors of ADAM17, dose response, biochemical (AID 743260)

T2 sequence (Q00975 whole entry): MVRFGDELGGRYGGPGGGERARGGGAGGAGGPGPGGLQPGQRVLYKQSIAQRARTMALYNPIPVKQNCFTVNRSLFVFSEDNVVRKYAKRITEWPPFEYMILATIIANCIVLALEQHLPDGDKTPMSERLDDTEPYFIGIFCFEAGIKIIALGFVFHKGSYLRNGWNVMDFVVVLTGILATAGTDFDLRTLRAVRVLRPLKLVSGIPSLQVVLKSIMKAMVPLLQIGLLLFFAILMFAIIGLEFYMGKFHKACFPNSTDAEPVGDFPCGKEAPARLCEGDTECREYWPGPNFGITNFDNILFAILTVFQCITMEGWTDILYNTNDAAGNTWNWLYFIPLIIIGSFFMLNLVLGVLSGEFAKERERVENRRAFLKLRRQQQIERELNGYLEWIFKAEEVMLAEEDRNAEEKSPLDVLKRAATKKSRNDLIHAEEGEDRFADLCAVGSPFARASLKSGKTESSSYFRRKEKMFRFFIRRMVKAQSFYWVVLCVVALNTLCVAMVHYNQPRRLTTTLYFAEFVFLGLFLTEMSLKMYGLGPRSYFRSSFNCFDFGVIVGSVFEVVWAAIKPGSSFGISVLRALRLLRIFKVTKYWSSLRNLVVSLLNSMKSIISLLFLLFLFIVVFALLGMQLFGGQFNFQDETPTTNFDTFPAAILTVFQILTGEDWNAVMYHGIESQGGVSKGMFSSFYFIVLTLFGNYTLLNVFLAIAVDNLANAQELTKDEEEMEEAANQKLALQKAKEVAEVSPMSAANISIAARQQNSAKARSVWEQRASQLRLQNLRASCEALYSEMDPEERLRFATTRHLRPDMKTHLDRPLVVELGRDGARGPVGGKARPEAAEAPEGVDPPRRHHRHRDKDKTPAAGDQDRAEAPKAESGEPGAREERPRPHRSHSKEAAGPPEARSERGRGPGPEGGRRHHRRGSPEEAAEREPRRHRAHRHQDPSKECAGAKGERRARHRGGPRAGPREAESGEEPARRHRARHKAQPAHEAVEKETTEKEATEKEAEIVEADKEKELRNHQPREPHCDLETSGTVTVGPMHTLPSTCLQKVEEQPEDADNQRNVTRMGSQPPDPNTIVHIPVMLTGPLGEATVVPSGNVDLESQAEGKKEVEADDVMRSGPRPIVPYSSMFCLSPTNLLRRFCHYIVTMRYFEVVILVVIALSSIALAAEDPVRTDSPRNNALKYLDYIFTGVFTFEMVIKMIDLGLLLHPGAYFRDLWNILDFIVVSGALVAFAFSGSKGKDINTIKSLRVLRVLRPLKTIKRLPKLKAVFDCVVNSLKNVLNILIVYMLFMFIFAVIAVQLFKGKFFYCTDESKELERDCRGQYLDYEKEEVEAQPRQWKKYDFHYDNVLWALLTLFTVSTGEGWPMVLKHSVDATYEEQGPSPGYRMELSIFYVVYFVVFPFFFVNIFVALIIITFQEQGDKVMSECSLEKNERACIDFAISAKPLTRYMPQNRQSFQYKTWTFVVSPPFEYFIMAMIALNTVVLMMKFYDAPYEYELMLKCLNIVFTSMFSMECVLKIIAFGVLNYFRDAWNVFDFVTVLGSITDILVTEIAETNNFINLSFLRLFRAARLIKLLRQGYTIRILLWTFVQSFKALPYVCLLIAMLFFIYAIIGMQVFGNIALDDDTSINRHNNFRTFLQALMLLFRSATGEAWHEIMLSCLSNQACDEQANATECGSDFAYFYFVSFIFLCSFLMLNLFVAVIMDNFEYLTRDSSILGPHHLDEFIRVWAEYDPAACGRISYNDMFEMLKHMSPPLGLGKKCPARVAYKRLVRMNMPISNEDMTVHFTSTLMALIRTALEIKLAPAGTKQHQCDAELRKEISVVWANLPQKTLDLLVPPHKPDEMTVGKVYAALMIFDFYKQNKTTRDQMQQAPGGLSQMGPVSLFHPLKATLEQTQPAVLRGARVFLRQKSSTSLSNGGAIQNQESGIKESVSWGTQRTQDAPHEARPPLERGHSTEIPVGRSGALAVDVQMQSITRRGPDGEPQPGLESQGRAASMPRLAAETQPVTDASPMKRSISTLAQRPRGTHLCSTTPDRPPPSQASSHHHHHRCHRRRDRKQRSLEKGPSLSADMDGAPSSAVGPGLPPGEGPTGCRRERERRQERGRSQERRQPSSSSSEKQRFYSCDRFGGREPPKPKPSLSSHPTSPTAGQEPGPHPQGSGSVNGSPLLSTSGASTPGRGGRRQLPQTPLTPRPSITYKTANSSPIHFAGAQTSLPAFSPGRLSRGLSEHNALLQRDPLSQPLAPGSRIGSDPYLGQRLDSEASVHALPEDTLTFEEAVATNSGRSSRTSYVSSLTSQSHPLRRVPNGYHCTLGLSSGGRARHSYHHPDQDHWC
T2 sequence (Q02410 whole entry): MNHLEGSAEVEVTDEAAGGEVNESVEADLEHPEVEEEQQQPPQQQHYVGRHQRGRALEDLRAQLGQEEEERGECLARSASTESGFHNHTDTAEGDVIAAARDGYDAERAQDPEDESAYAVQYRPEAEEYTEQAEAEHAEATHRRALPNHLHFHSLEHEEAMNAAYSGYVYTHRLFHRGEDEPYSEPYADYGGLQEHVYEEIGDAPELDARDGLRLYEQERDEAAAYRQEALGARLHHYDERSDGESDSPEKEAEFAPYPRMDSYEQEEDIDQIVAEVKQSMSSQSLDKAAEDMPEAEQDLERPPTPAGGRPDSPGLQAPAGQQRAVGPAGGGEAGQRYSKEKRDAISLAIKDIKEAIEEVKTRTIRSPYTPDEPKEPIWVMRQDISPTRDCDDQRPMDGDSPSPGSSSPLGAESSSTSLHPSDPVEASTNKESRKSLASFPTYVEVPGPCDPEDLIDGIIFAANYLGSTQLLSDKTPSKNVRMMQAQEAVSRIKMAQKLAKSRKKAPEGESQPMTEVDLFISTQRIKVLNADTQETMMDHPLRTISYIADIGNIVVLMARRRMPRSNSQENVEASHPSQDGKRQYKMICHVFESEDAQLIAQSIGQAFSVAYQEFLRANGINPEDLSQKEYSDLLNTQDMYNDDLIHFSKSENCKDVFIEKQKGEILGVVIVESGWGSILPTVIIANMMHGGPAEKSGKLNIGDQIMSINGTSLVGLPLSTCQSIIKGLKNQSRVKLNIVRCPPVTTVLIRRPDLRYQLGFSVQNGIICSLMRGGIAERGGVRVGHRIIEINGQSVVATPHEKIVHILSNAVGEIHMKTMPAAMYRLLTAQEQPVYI
Induced myeloid leukemia cell differentiation protein Mcl-1, sequence (Q07820 whole entry): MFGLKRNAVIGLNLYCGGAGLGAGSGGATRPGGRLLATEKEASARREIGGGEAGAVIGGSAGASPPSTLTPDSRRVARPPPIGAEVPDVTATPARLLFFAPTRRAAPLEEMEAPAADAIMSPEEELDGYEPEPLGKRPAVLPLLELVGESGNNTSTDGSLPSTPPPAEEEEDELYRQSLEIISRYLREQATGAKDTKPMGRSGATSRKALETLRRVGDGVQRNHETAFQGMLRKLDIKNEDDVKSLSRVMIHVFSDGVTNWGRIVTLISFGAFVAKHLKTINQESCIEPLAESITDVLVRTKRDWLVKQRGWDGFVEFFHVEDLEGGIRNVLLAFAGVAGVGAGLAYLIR
Albumin, sequence (P02769 whole entry): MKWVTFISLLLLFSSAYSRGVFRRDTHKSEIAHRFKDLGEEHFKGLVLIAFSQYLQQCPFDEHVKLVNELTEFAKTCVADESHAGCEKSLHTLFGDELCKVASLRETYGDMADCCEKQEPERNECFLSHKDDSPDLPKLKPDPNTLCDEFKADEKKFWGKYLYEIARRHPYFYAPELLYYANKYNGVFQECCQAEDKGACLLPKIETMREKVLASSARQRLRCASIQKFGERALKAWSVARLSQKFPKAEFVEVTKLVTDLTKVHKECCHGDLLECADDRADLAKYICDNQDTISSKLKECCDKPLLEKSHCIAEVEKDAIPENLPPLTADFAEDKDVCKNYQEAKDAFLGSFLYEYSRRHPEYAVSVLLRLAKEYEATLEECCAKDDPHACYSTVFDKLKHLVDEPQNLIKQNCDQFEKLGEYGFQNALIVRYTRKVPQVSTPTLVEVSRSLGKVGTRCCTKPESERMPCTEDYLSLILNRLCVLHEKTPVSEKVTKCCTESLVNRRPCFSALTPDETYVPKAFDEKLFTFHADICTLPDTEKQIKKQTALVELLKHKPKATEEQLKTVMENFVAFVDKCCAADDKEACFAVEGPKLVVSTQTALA
Estrogen receptor beta, sequence (Q92731 whole entry): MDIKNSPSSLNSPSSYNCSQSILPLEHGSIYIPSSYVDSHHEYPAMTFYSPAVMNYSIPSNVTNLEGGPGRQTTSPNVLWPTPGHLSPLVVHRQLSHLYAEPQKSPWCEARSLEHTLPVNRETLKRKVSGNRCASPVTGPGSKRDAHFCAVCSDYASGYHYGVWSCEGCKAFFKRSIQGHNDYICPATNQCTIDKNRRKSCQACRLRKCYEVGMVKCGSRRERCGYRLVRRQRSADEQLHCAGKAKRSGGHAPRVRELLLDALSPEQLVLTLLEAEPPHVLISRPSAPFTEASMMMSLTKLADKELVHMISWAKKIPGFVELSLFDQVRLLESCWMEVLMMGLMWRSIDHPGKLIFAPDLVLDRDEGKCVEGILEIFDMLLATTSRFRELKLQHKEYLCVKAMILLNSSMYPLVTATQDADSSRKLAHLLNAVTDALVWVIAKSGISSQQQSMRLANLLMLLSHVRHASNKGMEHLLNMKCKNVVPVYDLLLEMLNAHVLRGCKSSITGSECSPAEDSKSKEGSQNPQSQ
Genome polyprotein, sequence (Q2Q167 whole entry): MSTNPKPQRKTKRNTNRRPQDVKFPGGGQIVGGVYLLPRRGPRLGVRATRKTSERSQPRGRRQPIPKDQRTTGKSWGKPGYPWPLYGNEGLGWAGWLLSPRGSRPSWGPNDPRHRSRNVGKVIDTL

With `CC(C)c1oc(=O)cc2c1[C@@H](O)[C@H]1OC(=O)[C@@]3(C)C[C@@H](O)[C@@H](O)[C@@]2(C)C13` (stereo partly drawn) the IC50 [1] was > 80 µM (inactive), the AC50 [2] was 1.63 µM (active) and the IC50 (Vero) was 30.5 µM (active).

For `Nc1ncnc2oc(-c3ccco3)c(-c3ccco3)c12`, the IC50 (Estrogen receptor beta) was 3.4 µM (not active), the IC50 [3] was 4.12 µM (active) and the IC50 [4] was 2.6 µM (active). The IC50 [5] was 2.42 µM (active), the IC50 [6] was 3.82 µM (active) and the IC50 [7] was 2.92 µM (active). The IC50 (Genome polyprotein) was > 49.8 µM (not active), the IC50 (Albumin) was > 94.1 µM (inactive) and the EC50 [8] was 56.7 µM (active). The IC50 [9] was 21.7 µM (active) and the IC50 (Large T antigen) was 49.5 µM (active).

In the case of `CC(C)Cc1ccc(CN2CCCC(NC(=O)CSc3nncn3C)C2)cc1` (stereo not drawn), the EC50 (cells) was 0.071 µM (active), the EC50 [10] was > 60 µM (not active) and the EC50 [11] was < 0.1 µM (active).

With `COc1ccc(C(=O)n2c(SC)nc3cc4c(cc32)OCCO4)cc1` the IC50 (Prothrombin) was 0.955 µM (active).

For `CC(C)/N=c1\scc(-c2cccs2)n1/N=C/c1ccc(O)c(O)c1O`, the EC50 [12] was > 35.4 µM (not active), the EC50 [13] was 24.3 µM (not active) and the IC50 [14] was 12.8 µM (inactive). For the same compound, the IC50 [15] was > 50 µM (not active), the EC50 [16] was 22 µM (not active) and the AC50 [17] was 3.46 µM (active). The IC50 [18] was 41.3 µM (inactive), the EC50 [19] was > 3.94 µM (active) and the IC50 (HEK293) was > 35.4 µM (not active). For the same compound, the IC50 [20] was 31.2 µM (inactive).
